# Measurements reported in US7705030B2, “Amino-5-(5-membered)hetero-arylimidazolone compounds and the use thereof for β-secretase modulation” (Wyeth LLC, priority 2005, dated 2010).
# Structures can show the parent of a compound that is named as a salt.
# How the values were obtained:
# human BACE1 = human BACE1 (Homo sapiens, UniProt P56817); assay: Fluorescent kinetic assay: Evaluation of BACE-1 Binding Affinity of Test Compounds; assay type: biochemical; conditions: 10 nM enzyme, 25 μM substrate WABC-6, 50 mM Na-Acetate pH 4.5, room temperature
# Sequence of human BACE1 (P56817 46-501): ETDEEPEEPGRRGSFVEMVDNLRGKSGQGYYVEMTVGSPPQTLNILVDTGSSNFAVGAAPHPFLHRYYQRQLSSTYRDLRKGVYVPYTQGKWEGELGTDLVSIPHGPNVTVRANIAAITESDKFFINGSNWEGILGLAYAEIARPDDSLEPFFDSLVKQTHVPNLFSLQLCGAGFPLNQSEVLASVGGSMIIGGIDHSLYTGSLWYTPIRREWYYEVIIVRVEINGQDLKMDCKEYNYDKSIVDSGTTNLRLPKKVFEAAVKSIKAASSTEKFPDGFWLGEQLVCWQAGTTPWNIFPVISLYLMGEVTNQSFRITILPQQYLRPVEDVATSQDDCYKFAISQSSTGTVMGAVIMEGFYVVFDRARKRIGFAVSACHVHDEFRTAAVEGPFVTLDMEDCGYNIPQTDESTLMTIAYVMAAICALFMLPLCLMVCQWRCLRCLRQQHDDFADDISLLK
# Method: Evaluation of BACE-1 Binding Affinity of Test Compounds
# Fluorescent Kinetic Assays
# Final Assay Conditions: 10 nM human BACE1 (or 10 nM Murine BACE1, 1.5 nM human BACE2), 25 μM substrate (WABC-6, MW 1549.6, from AnaSpec), Buffer: 50 mM Na-Acetate, pH 4.5, 0.05% CHAPS, 25% PBS, room temperature. Na-Acetate was from Aldrich, Cat.# 24, 124-5, CHAPS was from Research Organics, Cat. # 1304C 1×, PBS was from Mediatech (Cellgro), Cat# 21-031-CV, peptide substrate Abz[…]pa was from AnaSpec, Peptide Name: WABC-6 Determination of stock substrate (Abz[…]pa) concentration: ˜25 mM stock solution is made in DMSO using the peptide weight and MW, and diluted to ˜25 μM (1:1000) in 1×PBS. Concentration is determined by absorbance at 354 nm using an extinction coefficient ε of 18172 M^−1 cm^−1, the concentration of stock substrate is corrected, and the substrate stock stored in small aliquots in −80° C. [Substrate Stock]=ABS^354 nm*10^6/18172 (in […]) The extinction coefficient ε^354 nm was adapted from TACE peptide substrate, which had the same quencher-fluorophore pair.
# Determination of Stock Enzyme Concentration: the stock concentration of each enzyme is determined by absorbance at 280 nm using an ε of 64150 M^−1 cm^−1 for hBACE1 and MuBACE1, 62870 M^−1 cm^−1 for hBACE2 in 6 M Guanidinium Hydrochloride (from Research Organics, Cat. # 5134G-2), pH ˜6. The extinction coefficient ε^280 nm for each enzyme was calculated based on known amino acid composition and published extinction coefficients for Trp ([…]) and Tyr ([…]) residues (Anal. Biochem. 182, 319-326).
# Dilution and mixing steps: total reaction volume: 100 μL
# 2× inhibitor dilutions in buffer A(66.7 mM Na-Acetate, pH 4.5, 0.0667% CHAPS) were prepared,
# 4× enzyme dilution in buffer A(66.7 mM Na-Acetate, pH 4.5, 0.0667% CHAPS) were prepared,
# 100 μM substrate dilution in 1×PBS was prepared, and
# 50 μL 2× Inhibitor, 25 μL 100 μM substrate are added to each well of 96-well plate (from DYNEX Technologies, VWR #: 11311-046), immediately followed by 25 μL 4× enzyme (added to the inhibitor and substrate mix), and the fluorescence readings are initiated.
# Fluorescence Readings: Readings at λex 320 nm and λem 420 nm are taken every 40 sec for 30 min at room temperature and the linear slope for substrate cleavage rate (vi) determined.
# Testing at least 10 different inhibitor concentrations is preferred.
Compound,melting point,IC50 (human BACE1)
"Cc1c(C2(c3cccc(-c4cccnc4F)c3)N=C(N)N(C)C2=O)cnn1CC(F)(F)F (stereo not shown) [Example 2, 2-Amino-5-[3-(2-fluoropyridin-3-yl)phenyl]-3-methyl-5-[5-methyl-1-(2,2,2-trifluoroethyl)-1H-pyrazol-4-yl]-3,5-dihydro-4H-imidazol-4-one]",235 to 238 °C,110 to 1000 nM
"CC(C)Cn1cc(C2(c3cccc(-c4cccnc4F)c3)N=C(N)N(C)C2=O)cn1 (stereo not shown) [Example 3, 2-Amino-5-[3-(2-fluoropyridin-3-yl)phenyl]-5-(1-isobutyl-1H-pyrazol-4-yl)-3-methyl-3,5-dihydro-4H-imidazol-4-one]",94 to 98 °C,10 to 100 nM
"CCCCn1cc(C2(c3cccc(-c4cccnc4F)c3)N=C(N)N(C)C2=O)cn1 (stereo not shown) [Example 4, 2-Amino-5-(1-butyl-1H-pyrazol-4-yl)-5-[3-(2-fluoropyridin-3-VI)phenyl]-3-methyl-3,5-dihydro-4H-imidazol-4-one]",88 to 92 °C,10 to 100 nM
"CC(C)Cn1cc(C2(c3cccc(-c4cncnc4)c3)N=C(N)N(C)C2=O)cn1 (stereo not shown) [Example 5, 2-Amino-5-(1-isobutyl-1H-pyrazol-4-yl)-3-methyl-5-(3-pyrimidin-5-ylphenyl)-3,5-dihydro-4H-imidazol-4-one]",118 to 122 °C,10 to 100 nM
"CCCCn1cc(C2(c3cccc(-c4cncnc4)c3)N=C(N)N(C)C2=O)cn1 (stereo not shown) [Example 6, 2-Amino-5-(1-butyl-1H-pyrazol-4-yl)-3-methyl-5-(3-pyrimidin-5-ylphenyl)-3,5-dihydro-4H-imidazol-4-one]",94 to 98 °C,10 to 100 nM
"CN1C(=O)C(c2ccc(F)c(-c3cccnc3F)c2)(c2cnn(CC(F)(F)F)c2)N=C1N (stereo not shown) [Example 7, 2-Amino-5-[4-fluoro-3-(2-fluoropyridin-3-yl)phenyl]-3-methyl-5-[1-(2,2,2-trifluoroethyl)-1H-pyrazol-4-yl]-3,5-dihydro-4H-imidazol-4-one]",> 225 °C,110 to 1000 nM
"CN1C(=O)C(c2ccc(F)c(-c3cncnc3)c2)(c2cnn(CC(F)(F)F)c2)N=C1N (stereo not shown) [Example 8, 2-Amino-5-(4-fluoro-3-pyrimidin-5-ylphenyl)-3-methyl-5-[1-(2,2,2-trifluoroethyl)-1H-pyrazol-4-yl]-3,5-dihydro-4H-imidazol-4-one]",115 to 117 °C,110 to 1000 nM
"CCn1cc(C2(c3ccc(F)c(-c4cncnc4)c3)N=C(N)N(C)C2=O)cn1 (stereo not shown) [Example 9, 2-Amino-5-(1-ethyl-1H-pyrazol-4-yl)-5-(4-fluoro-3-pyrimidin-5-ylphenyl)-3-methyl-3,5-dihydro-4H-imidazol-4-one]",120 to 121 °C,10 to 100 nM
"CCn1cc(C2(c3ccc(F)c(-c4cccnc4F)c3)N=C(N)N(C)C2=O)cn1 (stereo not shown) [Example 10, 2-Amino-5-(1-ethyl-1H-pyrazol-4-yl)-5-[4-fluoro-3-(2-fluoropyridin-3-yl)phenyl]-3-methyl-3,5-dihydro-4H-imidazol-4-one]",84 to 85 °C,10 to 100 nM
"Cc1nn(CC(F)(F)F)cc1C1(c2cccc(-c3cccnc3F)c2)N=C(N)N(C)C1=O (stereo not shown) [Example 11, 2-Amino-5-[3-(2-fluoropyridin-3-yl)phenyl]-3-methyl-5-[3-methyl-1-(2,2,2-trifluoroethyl)-1H-pyrazol-4-yl]-3,5-dihydro-4H-imidazol-4-one]",128 to 132 °C,110 to 1000 nM
"Cc1sccc1C1(c2cccc(-c3cncnc3)c2)N=C(N)N(C)C1=O (stereo not shown) [Example 27, 2-Amino-5-(2-methylthien-3-yl)-3-methyl-5-(3-pyrimidin-5-ylphenyl)-3,5-dihydro-4H-imidazol-4-one]",154 to 159 °C,110 to 1000 nM
CCc1cc(C2(c3cccc(-c4cncnc4)c3)N=C(N)N(C)C2=O)cs1 (stereo not shown) [Example 29],144 to 146 °C,10 to 100 nM
CCc1cc(C2(c3cccc(-c4cncnc4)c3)N=C(N)N(C)C2=O)c(C)s1 (stereo not shown) [Example 31],128 to 134 °C,110 to 1000 nM
CN1C(=O)C(c2cccc(-c3cncnc3)c2)(c2csc(Cl)c2)N=C1N (stereo not shown) [Example 32],236 to 240 °C,10 to 100 nM
CN1C(=O)C(c2ccsc2)(c2cccc(-c3cnccn3)c2)N=C1N (stereo not shown) [Example 33],223 °C,10 to 100 nM
"CCn1ccc(C2(c3cccc(Br)c3)N=C(N)N(C)C2=O)c1 (stereo not shown) [Example 50, 2-Amino-5-(3-bromophenyl)-5-(1-ethyl-1H-pyrrol-3-yl)-3-methyl-3,5-dihydro-4H-imidazol-4-one]",138 to 140 °C,
"CN1C(=O)C(c2cccc(Br)c2)(c2ccn(CC(F)(F)F)c2)N=C1N (stereo not shown) [Example 51, 2-Amino-5-(3-bromophenyl)-3-methyl-5-[1-(2,2,2-trifluoroethyl)-1H-pyrrol-3-yl]-3,5-dihydro-4H-imidazol-4-one]",74 to 76 °C,
"CN1C(=O)C(c2cccc(Br)c2)(c2cnn(CC(F)(F)F)c2)N=C1N (stereo not shown) [Example 81, 2-amino-5-(3-bromophenyl)-3-methyl-5-[1-(2,2,2-trifluoroethyl)-1H-pyrazol-4-yl]-3,5-dihydro-4H-imidazol-4-one]",80 to 82 °C,
"CC(C)n1cc(C2(c3ccc(F)c(Br)c3)N=C(N)N(C)C2=O)cn1 (stereo not shown) [Example 95, 2-amino-5-(3-bromo-4-fluorophenyl)-5-(1-isopropyl-1H-pyrazol-4-yl)-3-methyl-3,5-dihydro-4H-imidazol-4-one]",80 to 82 °C,

# Next, values leading:
melting point,IC50 (human BACE1),Compound
190 to 193 °C,,"CCn1cc(C2(c3cccc(-c4cccnc4F)c3)N=C(N)N(C)C2=O)cc1/C=N/OC (stereo not shown) (as salt: hydrochloride) [Example 241, 4-[2-Amino-4-[3-(2-fluoropyridin-3-yl)phenyl]-1-methyl-5-oxo-4,5-dihydro-1H-imidazol-4-yl]-1-ethyl-1H-pyrrole-2-carbaldehyde O-methyloxime hydrochloride]"
110 to 113 °C,,CC(C)n1cc(C2(c3ccc(F)c(-c4cncnc4)c3)N=C(N)N(C)C2=O)cn1 (stereo not shown) [Example 96]
93 to 103 °C,,CCC1(c2cc(C3(c4cccc(-c5cccnc5F)c4)N=C(N)N(C)C3=O)cs2)OCCO1 (stereo not shown) [Example 113]
98 to 112 °C,,"CCC(=O)c1cc(C2(c3cccc(-c4cccnc4F)c3)N=C(N)N(C)C2=O)cs1 (stereo not shown) [Example 115, 2-Amino-5-[3-(2-fluoro-pyridin-3-yl)-phenyl]-3-methyl-5-(5-propionyl-thiophen-3-yl)-3,5-dihydro-imidazol-4-one]"
,10 to 100 nM,"CCC(=O)c1cc([C@]2(c3cccc(-c4cccnc4F)c3)N=C(N)N(C)C2=O)cn1CC(F)(F)F [Example 224A, (5S)-2-amino-5-[3-(2-fluoropyridin-3-yl)phenyl]-3-methyl-5-[5-propionyl-1-(2,2,2-trifluoroethyl)-1H-pyrrol-3-yl]-3,5-dihydro-4H-imidazol-4-one]"
,> 1000 nM,"CCC(=O)c1cc([C@@]2(c3cccc(-c4cccnc4F)c3)N=C(N)N(C)C2=O)cn1CC(F)(F)F [Example 224B, (5R)-2-amino-5-[3-(2-fluoropyridin-3-yl)phenyl]-3-methyl-5-[5-propionyl-1-(2,2,2-trifluoroethyl)-1H-pyrrol-3-yl]-3,5-dihydro-4H-imidazol-4-one]"
,10 to 100 nM,"CCn1cc(C2(c3cccc(-c4cccnc4F)c3)N=C(N)N(C)C2=O)cc1/C=N/OC (stereo not shown) [Example 241, 4-[2-Amino-4-[3-(2-fluoropyridin-3-yl)phenyl]-1-methyl-5-oxo-4,5-dihydro-1H-imidazol-4-yl]-1-ethyl-1H-pyrrole-2-carbaldehyde O-methyloxime hydrochloride]"
,10 to 100 nM,"CCn1cc([C@]2(c3cccc(-c4cccnc4F)c3)N=C(N)N(C)C2=O)cc1C=O [Example 247, 4-{(4S)-2-Amino-4-[3-(2-fluoropyridin-3-yl)phenyl]-1-methyl-5-oxo-4,5-dihydro-1H-imidazol-4-yl}-1-ethyl-1H-pyrrole-2-carbaldehyde]"
,10 to 100 nM,"CC(=O)Cc1cc([C@]2(c3cccc(-c4cccnc4F)c3)N=C(N)N(C)C2=O)cn1CCCF [Example 248, (5S)-2-Amino-5-[1-(3-fluoropropyl)-5-(2-oxopropyl)-1H-pyrrol-3-yl]-5-[3-(2-fluoropyridin-3-yl)phenyl]-3-methyl-3,5-dihydro-4H-imidazol-4-one]"
